Structures can show the parent of a compound that is named as a salt.
Columns and labels:
[1] = in distilled water; bitartrate salt form; cited from earlier work
[2] = Dialysis test of vinorelbine incorporation into the oil phase of an emulsion; details: for effect of stabilizer on vinorelbine incorporation into the oil phase (vinorelbine concentration in PBS): dialysis against PBS pH 7.4, emulsion with […] (w/w) vinorelbine bitartrate, FIG. 1
Description: The concentration of each stabilizer added into formulation is: 1.57% (w/w) for sodium oleate, 2.73% (w/w) for vitamin E succinate, 2.46% (w/w) for riboflavin-5-phosphate sodium and 2.52% (w/w) for cholesterol sulfate. A formulation without any stabilizer (“control”) and a formulation with extra Phospholipon 90G were also evaluated in the study.
The drug incorporation into the oil phase was tested using a dialysis method developed specifically for this purpose. This method involved filling 500 mg of an emulsion into a Slide-A-Lyzer dialysis cassette with 10,000 MW cutoffs, placing the cassette in 70 mL phosphate buffered saline (PBS), pH 7.4 and shaking the solution on a platform shaker at 100 RPM.

Structure (SMILES)	effect of stabilizer on vinorelbine incorporation into the oil phase (vinorelbine concentration in PBS) [2]	also measured
CCC1=C[C@@H]2CN(C1)Cc1c([nH]c3ccccc13)[C@@](C(=O)OC)(c1cc3c(cc1OC)N(C)[C@H]1[C@@](O)(C(=O)OC)[C@H](OC(C)=O)[C@]4(CC)C=CCN5CC[C@]31[C@@H]54)C2 (relative stereo) [vinorelbine bitartrate, 3′,4′-didehydro-4′-deoxy-C′-norvincaleukoblastine [R-(R*,R*)-2,3-dihydroxybutanedioate (1:2) (salt)]]	–	aqueous solubility [1]: > 1000 mg/mL
Cc1c(C)c2c(c(C)c1OC(=O)CCC(=O)O)CC[C@@](C)(CCC[C@H](C)CCC[C@H](C)CCCC(C)C)O2 [Vitamin E succinate, vitamin E succinate]	most effective stabilizers	–
Cc1cc2nc3c(=O)[nH]c(=O)nc-3n(C[C@H](O)[C@H](O)[C@H](O)COP(=O)([O-])O)c2cc1C.[Na+] [riboflavin-5-phosphate, riboflavin-5-phosphate sodium]	most effective stabilizers	–
CCCCCCCC/C=C\CCCCCCCC(=O)[O-].[Na+] [sodium oleate]	most effective stabilizers	partition of vinorelbine into the aqueous phase ([2]; vinorelbine-to-oleate molar ratio of 1:4 (charge ratio of 1:1), dialysis, 28 hours, FIG. 2): almost completely stopped the partition of vinorelbine into the aqueous phase
CCC1=C[C@@H]2CN(C1)Cc1c([nH]c3ccccc13)[C@@](C(=O)OC)(c1cc3c(cc1OC)N(C)[C@H]1[C@@](O)(C(=O)OC)[C@H](OC(C)=O)[C@]4(CC)C=CCN5CC[C@]31[C@@H]54)C2 [vinorelbine, reference compound]	–	incorporation of vinorelbine in the oil phase ([2]; emulsion without a stabilizer): present primarily in the aqueous phase

Source: patent US8222268B2, “Methods for reducing vein irritation” (Adventrx Pharmaceuticals, Inc., priority 2004, dated 2012)
